Results from paper PMC5343914, “Phytochemical Analysis of Agrimonia pilosa Ledeb, Its Antioxidant Activity and Aldose Reductase Inhibitory Potential” (International Journal of Molecular Sciences, 2017).
Read-outs that look alike come from different tables or passages of the source.

Assays:
[1] = DPPH free radical scavenging capacity
Experimental: The stable free radical was used to determine the free radical-scavenging activity of the extracts. Briefly, a 0.32 mM solution of DPPH in MeOH was prepared, and 180 µL of this solution was mixed with 30 µL of each sample at concentrations of 0.05–1.0 mg/mL in DMSO. After 20 min of incubation in the darkroom, the decrease in the absorbance of the solution was measured at 570 nm on a microplate reader (EL800 Universal Microplate reader, Bio-Tek instruments, Winooski, VT, USA). DPPH inhibitory activity was expressed as the percentage inhibition (%) of DPPH in the aforementioned assay system, and was calculated as [1 − (Asample − Ablank/Acontrol − Ablank)] × 100%, where Acontrol is the absorbance of DPPH solution (180 µL) with methanol (30 µL); Ablank is the absorbance of distilled water (180 µL) with methanol (30 µL); Asample is the absorbance of DPPH solution (180 µL) with sample solution (30 µL).

[2] = system: sorbitol accumulation in rat lenses; experiment: Lens culture and intracellular sorbitol measurement (ex vivo); conditions: compound 5.0 μg/mL; for Inhibition (%) of sorbitol accumulation in rat lens: isolated rat lens ex vivo; for Sorbitol Content (mg)/Lens Wet Weight (g): isolated rat lens, 30 mM glucose medium, 6 d
Experimental: Lenses isolated from 10-week-old Sprague–Dawley rats using the registration number mentioned in the section of 4.5 were cultured for 6 d in TC-199 medium that contained 15% fetal bovine serum, 100 units/mL penicillin, and 0.1 mg/mL streptomycin, under sterile conditions and an atmosphere of 5% CO2 and 95% air at 37 °C. Samples were dissolved in DMSO. The lenses were divided into three groups and cultured in medium containing 30 mM glucose and RLAR-active compounds. Each lens was placed in a well containing 2.0 mL of medium. Sorbitol was determined by HPLC using the methods mentioned in the section of 4.7 after its derivatization by reaction with benzoic acid to a fluorescent compound [42].

[3] = target: T1, rat lens aldose reductase (RLAR) (Rattus norvegicus, UniProt P07943); experiment: Determination of RLAR inhibition in vitro (NADPH decrease at 340 nm, DL-glyceraldehyde substrate); type: biochemical; design: inhibition: dose or concentration left out as unconfirmed; conditions: for IC50: Experiments; for inhibition: Table 2, printed under head DPPH/Experiments;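 as to all read-outs here: crude enzyme from Sprague–Dawley rat lens homogenate supernatant, absorbance read over 3 min in pH 6.2 potassium phosphate buffer with 1.6 mM NADPH and 25 mM substrate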
T1 construct: The supernatant was collected and used as the RLAR; from tissue; host or cells: Sprague–Dawley rat lens homogenate, 10,000 x g supernatant
Experimental: Crude RLAR was prepared as follows: lenses weighing 250–280 g were removed from Sprague–Dawley rats and frozen at −70 °C until use. […] Non-cataractous transparent lenses were pooled and a homogenate was prepared in 0.1 M phosphate-buffered saline (pH 6.2). RLAR homogenate was then centrifuged at 10,000× g for 20 min at 4 °C in a refrigerated centrifuge. The supernatant was collected and used as the RLAR. All procedures were carried out at 4 °C [37].
RLAR activity was assayed spectrophotometrically by measuring the decrease in the absorption of NADPH at 340 nm over a 3-min period using DL-glyceraldehyde as the substrate. Each 1.0 mL cuvette contained equal units of the enzyme, 0.10 M potassium phosphate buffer (pH 6.2), 1.6 mM NADPH, 25 mM DL-glyceraldehyde (the substrate), and an inhibitor or dimethyl sulfoxide (DMSO).

[4] = target: T2, recombinant human aldose reductase (RHAR) (Homo sapiens, UniProt P15121); experiment: Determination of inhibition type of RHAR (Lineweaver-Burk plots); type: biochemical; conditions: DL-glyceraldehyde 1.0 to 25.0 mM
T2 construct: purchased Wako Pure Chemical Industries (Osaka, Japan)
Experimental: Reaction mixtures consisted of 0.1 M potassium phosphate, 1.6 mM NADPH, and 2 mM of RHAR with varied concentrations of substrate DL-glyceraldehyde and AR inhibitor in a total volume of 600 μL. […] RHAR activity was assayed by measuring the decrease in absorption of NADPH after substrate addition at 340 nm using a Bio Tek Power Wave XS spectrophotometer (Bio Tek Instruments, Winooski, VT, USA) [41].

[5] = target: T1, rat lens aldose reductase (RLAR)
[6] = Offline DPPH HPLC assay of the n-BuOH fraction (peak area reduction); conditions: n-BuOH fraction 20 mg/mL mixed with […] DPPH, 20 min, HPLC 254 nm
Experimental: The sample was analyzed using an Agilent Technologies modular model 1200 system with a vacuum degasser (G1322A), a quaternary pump (G1311A), an auto-sampler (G1329A), a thermo-statted column compartment (G1316A), and a variable wavelength detector (VWD, G1314D) system. The separation was achieved on an Eclipse XDB-phenyl column (150 mm × 4.6 mm, 3.5 μm) maintained at 30 °C. The elution solvents were 0.1% trifluoroacetic acid (A) and MeOH (B) with the following gradient: 20%–30% B (0–3 min), 30%–40% B (3–10 min), 40%–50% B (10–20 min), 50%–60% B […], 60%–100% B (25–35 min), 100%–100% B (35–38 min), 100%–20% B (38–40 min), and 20%–20% B (40–45 min). Injection volume was 10 µL (sample concentration: 1 mg/mL) and UV wavelength was 254 nm.
The offline DPPH HPLC assay was performed by modifying a previously-described protocol. Thirty microliters (20 mg/mL in MeOH) of the n-BuOH fraction from APE were mixed with 180 μL prepared DPPH solution (0.32 mM). The mixture was incubated in the dark for 20 min, then filtered through a 0.45-μm filter for HPLC analysis. The n-BuOH (20 mg/mL in MeOH) was used as a control. The extent of peak decrease is expressed as a quantitative reduction.

[7] = target: T2, recombinant human aldose reductase (RHAR); conditions: cited from earlier work; for Inhibition type (References): Table 3; for inhibition pattern against RHAR: ref Lee et al., Ha et al., Chethan et al. 31, 32, 33
[8] = literature value; read-out: RLAR IC50 (References); cited from earlier work

Compound	IC50 [1]	Inhibition (%) of sorbitol accumulation in rat lens [2]	Sorbitol Content (mg)/Lens Wet Weight (g) [2]	IC50 [3]	inhibition [3]	IC50 [5, 8]	also measured
C[C@@H]1O[C@@H](Oc2c(-c3ccc(O)cc3)oc3cc(O)cc(O)c3c2=O)[C@H](O)[C@H](O)[C@H]1O [Afzelin (AZ), afzelin]	> 250 µM	93.2 ± 8.67%	0.10 ± 0.01 mg/g				DPPH free radical scavenging activity (in words) [1]: no DPPH free radical scavenging activity
O=C(OC1OC2COC(=O)c3cc(O)c(O)c(O)c3-c3c(cc(O)c(O)c3O)C(=O)OC2C2OC(=O)c3cc(O)c(O)c(O)c3-c3c(cc(O)c(O)c3O)C(=O)OC12)c1cc(O)c(O)c(Oc2c(C(=O)OC3OC4COC(=O)c5cc(O)c(O)c(O)c5-c5c(cc(O)c(O)c5O)C(=O)OC4C4OC(=O)c5cc(O)c(O)c(O)c5-c5c(cc(O)c(O)c5O)C(=O)OC34)cc(O)c(O)c2O)c1 (stereo not drawn) [Agrimoniin (AM), agrimoniin]	13 ± 0.06 µM	47.6 ± 1.34%	0.77 ± 0.02 mg/g	1.6 ± 0.12 µM			Inhibition type [4]: Noncompetitive
O=c1cc(-c2ccc(O)cc2)oc2cc(O)cc(O)c12 [Apigenin (AG), apigenin]	156.3 ± 1.21 µM			3.2 ± 0.21 µM	81.8 ± 1.2%		IC50 ([5]; read-out: RLAR IC50 (References); literature value; cited from earlier work): 2.2 µM
O=c1cc(-c2ccc(O)cc2)oc2cc(O[C@@H]3O[C@H](CO)[C@@H](O)[C@H](O)[C@H]3O)cc(O)c12 [Apigenin-7-O-glucoside (AGC), apigenin-7-O-glucoside]	> 250 µM			4.3 ± 0.14 µM	40.2 ± 0.56%	23 µM	peak area reduction (PAR) [6]: lower than 20.0%; DPPH free radical scavenging activity (in words) [1]: almost no DPPH free radical scavenging activity
O=C(O)[C@H]1O[C@@H](Oc2cc(O)c3c(=O)cc(-c4ccc(O)cc4)oc3c2)[C@H](O)[C@@H](O)[C@@H]1O [Apigenin-7-O-glucuronide (AGN), apigenin-7-O-glucuronide]	> 250 µM			> 30 µM	< 0%		RLAR inhibitory activity (in words) [3]: inactive; peak area reduction (PAR) [6]: lower than 20.0%; DPPH free radical scavenging activity (in words) [1]: almost no DPPH free radical scavenging activity
O=c1c(O[C@@H]2O[C@H](CO)[C@@H](O)[C@H](O)[C@H]2O)c(-c2ccc(O)cc2)oc2cc(O)cc(O)c12 [Astragalin (AS), astragalin]	> 250 µM			5.1 ± 0.89 µM	53.3 ± 1.14%	> 30 µM	DPPH free radical scavenging activity (in words) [1]: no DPPH free radical scavenging activity
Oc1cc(O)c2c(c1)OC(c1ccc(O)c(O)c1)C(O)C2 (stereo not drawn) [Catechin (CT), catechin]	106.7 ± 0.43 µM			> 30 µM	7.2 ± 1.02%	> 30 µM	
O=c1c(O[C@@H]2O[C@H](CO)[C@H](O)[C@H](O)[C@H]2O)c(-c2ccc(O)c(O)c2)oc2cc(O)cc(O)c12 [Hyperin (HP), hyperin]	73.3 ± 0.23 µM			4.1 ± 0.32 µM	90.8 ± 0.96%	3 µM	
O=c1c(O[C@@H]2O[C@H](CO)[C@@H](O)[C@H](O)[C@H]2O)c(-c2ccc(O)c(O)c2)oc2cc(O)cc(O)c12 [Isoquercitrin (IQC), Isoquercitrin]	65.9 ± 0.46 µM			5.1 ± 0.88 µM	41 ± 1.07%	4.5 µM	
O=c1c(O)c(-c2ccc(O)cc2)oc2cc(O)cc(O)c12 [Kaempferol (KP), kaempferol]	91.6 ± 0.68 µM			15.2 ± 1.32 µM	11.8 ± 0.81%	10 µM	
O=C1O[C@H]([C@@H](O)CO)C(O)=C1O [L-Ascorbic acid, L-ascorbic acid]	147.3 ± 0.43 µM						Inhibition (%) DPPH ([1]; Table 1, concentration not in table, text b9: crude extract 7.1 μg/mL): 81.0 ± 0.01%
O=c1cc(-c2ccc(O)c(O)c2)oc2cc(O)cc(O)c12 [Luteolin (LT), luteolin]	88.2 ± 0.52 µM	91.8 ± 7.91%	0.12 ± 0.01 mg/g		80.2 ± 0.9%		Inhibition type (References) [7]: Mixed type [30]; inhibition pattern against RHAR [7]: mixed-type
O=c1cc(-c2ccc(O)c(O)c2)oc2cc(O[C@@H]3O[C@H](CO)[C@@H](O)[C@H](O)[C@H]3O)cc(O)c12 [Luteolin-7-O-glucoside (LGC), luteolin-7-O-glucoside]	71.5 ± 0.29 µM			8.1 ± 0.72 µM	46.9 ± 0.95%	7.5 µM	peak area reduction (PAR) [6]: lower than 20.0%
O=C(O)[C@H]1O[C@@H](Oc2cc(O)c3c(=O)cc(-c4ccc(O)c(O)c4)oc3c2)[C@H](O)[C@@H](O)[C@@H]1O [Luteolin-7-O-glucuronide (LGN), luteolin-7-O-glucuronide]	80.6 ± 0.38 µM	91.8 ± 9.01%	0.12 ± 0.01 mg/g	0.7 ± 0.54 µM	83.3 ± 0.88%	3.1 µM	peak area reduction (PAR) [6]: lower than 20.0%; Inhibition type [4]: Noncompetitive
O=c1c(O)c(-c2ccc(O)c(O)c2)oc2cc(O)cc(O)c12 [Quercetin (QC), quercetin]	70.4 ± 0.15 µM	85.7 ± 8.32%	0.21 ± 0.02 mg/g				inhibition at 10 µg/mL [3]: 74.1 ± 0.85%; Inhibition type (References) [7]: Noncompetitive [31]; inhibition pattern against RHAR [7]: noncompetitive
C[C@@H]1O[C@@H](Oc2c(-c3ccc(O)c(O)c3)oc3cc(O)cc(O)c3c2=O)[C@H](O)[C@H](O)[C@H]1O [Quercitrin (QU), quercitrin]	77.9 ± 0.27 µM	76.9 ± 5.32%	0.34 ± 0.02 mg/g	0.2 ± 0.02 µM			inhibition at 10 µg/mL [3]: 97.4 ± 1.38%; RLAR potency relative to positive control TMG (times higher) ([3]; IC50 0.2 μM vs TMG 0.5 μM): 2.5 times; Inhibition type (References) [7]: Uncompetitive [29]; inhibition pattern against RHAR [7]: uncompetitive
C[C@@H]1O[C@@H](OC[C@H]2O[C@@H](Oc3c(-c4ccc(O)c(O)c4)oc4cc(O)cc(O)c4c3=O)[C@H](O)[C@@H](O)[C@@H]2O)[C@H](O)[C@H](O)[C@H]1O [Rutin (RT), rutin]	66.8 ± 0.34 µM			9.5 ± 0.75 µM	31.7 ± 0.65%		peak area reduction (PAR) [6]: lower than 20.0%
O=C(O)CC1(CC(=O)O)CCCC1 [TMG, tetramethylene glutaric acid]				0.5 ± 0.05 µM		1 µM	Inhibition (%) RLAR ([3]; Table 1, concentration not in table, text b9: crude extract 10.0 μg/mL, EtOAc, n-BuOH fractions and TMG 1.0 μg/mL): 99.7 ± 0.11%
O=c1cc(-c2ccc(O)cc2)oc2c([C@@H]3O[C@H](CO)[C@@H](O)[C@H](O)[C@H]3O)c(O)cc(O)c12 [Vitexin (VT), vitexin]	> 250 µM			> 30 µM	12.2 ± 0.95%	> 30 µM	DPPH free radical scavenging activity (in words) [1]: no DPPH free radical scavenging activity
